# Reference: EP0009547A1, “Fluoramphenicol esters, chemotherapeutic preparations containing them and process for their preparation” (F. HOFFMANN-LA ROCHE & CO. Aktiengesellschaft, priority 1978, dated 1980)
# Structures can show the parent of a compound that is named as a salt. Where two headings read alike, the source gives them in different places.
# Legend:
# [1] = Metabolic stability; assay type: in vitro ADME; details: stated in contrast to Chloramphenicol
# [2] = Water solubility (observation on the isolated product); assay type: physicochemical; details: in Wasser, result in words
# [3] = tested on: Salmonella typhimurium; assay: In vivo activity (mouse), infection with Salmonella typhimurium; details: Salmonella enterica, po; Maus, p.o., gegen Salmonella typhimurium; hydrochloride form; read-out: In-vivo-Aktivität (Maus) (CD50 p.o.)
# [4] = Hydrolytic cleavage of the ester at physiological pH; assay type: physicochemical; details: bei physiologischem pH
# [5] = Acute toxicity (mouse); details: in vivo, read-out: Akute Toxizität (Maus): LD50
# [6] = tested on: Pseudomonas aeruginosa BA; assay: In vivo activity (mouse), infection with Pseudomonas aeruginosa BA; details: po; Maus, p.o., gegen Pseudomonas aeruginosa BA; hydrochloride form; read-out: In-vivo-Aktivität (Maus) (CD50 p.o.)
# [7] = tested on: Streptococcos pyogenes; assay: In vivo activity (mouse), infection with Streptococcos pyogenes; details: po, Maus, p.o., gegen Streptococcos pyogenes, hydrochloride form, read-out: In-vivo-Aktivität (Maus) (CD50 p.o.)
# [8] = tested on: Escherichia coli; assay: In vivo activity (mouse), infection with Escherichia coli; details: po; Maus, p.o., gegen Escherichia coli; hydrochloride form; read-out: In-vivo-Aktivität (Maus) (CD50 p.o.)
structure (smiles),measurement,setting,value
"O=C(N[C@H](CO)[C@H](O)c1ccc([N+](=O)[O-])cc1)C(F)F [Fluoramphenicol, D-threo-1-(p-Nitrophenyl)-2-difluor-Mez/3.5.1979 acetamino-l,3-propandiol]",Metabolische Beständigkeit,[1],metabolisch beständig
C[C@H](N)C(=O)OC[C@@H](NC(=O)C(F)F)[C@H](O)c1ccc([N+](=O)[O-])cc1 [Fluoramphenicol-3-(L-alaninester)-hydrochlorid],Wasserlöslichkeit,[2],sehr gut wasserlösliches
"NCC(=O)OC[C@@H](NC(=O)C(F)F)[C@H](O)c1ccc([N+](=O)[O-])cc1 [Fluoramphenicol-3-glycinester, Fluoramphenicol-3-(glycinester)-hydrochlorid]",ED50,[3],12 mg/kg
same,Hydrolytische Spaltung,[4],sofort hydrolytisch zu wirksamem Fluoramphenicol gespalten
same,LD50,[5]; po,> 5000 mg/kg
same,LD50,[5]; sc,2000 to 4000 mg/kg
same,ED50,[6],47 mg/kg
same,ED50,[7],27 mg/kg
same,ED50,[8],23 mg/kg
O=C(O)CCC(=O)OC[C@@H](NC(=O)C(F)F)[C@H](O)c1ccc([N+](=O)[O-])cc1 [Fluoramphenicol-3-monosuccinat-natriumsalz],Wasserlöslichkeit,[2],sehr gut wasserlösliches
CCCCCCCCCCCCCCCC(=O)OC[C@@H](NC(=O)C(F)F)[C@H](O)c1ccc([N+](=O)[O-])cc1 [Fluoramphenicol-3-palmitat],Wasserlöslichkeit,[2],in Wasser praktisch unlösliche
